Measured values published in US20110319379A1, “Substituted Indazole Amides And Their Use As Glucokinase Activators” (priority 2009, published 2011).

Molecular target: T1, recombinant human glucokinase (Homo sapiens, UniProt P35557)
T1 construct: Full-length glucokinase (beta cell isoform) was His-tagged at the N-terminus and purified by a Ni column followed by size exclusion chromatography as described above; His tag; made in house; host or cells: E. coli BL21(DE3), vector pBCGK
T1 sequence (P35557 1-465): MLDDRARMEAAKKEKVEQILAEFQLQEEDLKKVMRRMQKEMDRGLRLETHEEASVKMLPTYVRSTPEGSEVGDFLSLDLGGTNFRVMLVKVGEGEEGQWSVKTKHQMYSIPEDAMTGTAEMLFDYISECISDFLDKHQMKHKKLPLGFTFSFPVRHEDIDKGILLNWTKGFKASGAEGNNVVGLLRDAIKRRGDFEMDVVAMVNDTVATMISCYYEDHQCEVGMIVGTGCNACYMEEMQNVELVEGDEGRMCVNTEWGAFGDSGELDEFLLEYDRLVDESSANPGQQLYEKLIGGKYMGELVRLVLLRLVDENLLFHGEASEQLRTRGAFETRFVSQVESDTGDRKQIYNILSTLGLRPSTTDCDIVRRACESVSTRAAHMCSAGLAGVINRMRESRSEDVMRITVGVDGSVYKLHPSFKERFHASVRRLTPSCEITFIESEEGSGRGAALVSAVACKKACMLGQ
Assay: Assay 2: Evaluating Activator Potency in a Matrix Assay at Multiple Glucose Concentrations
Type: biochemical
Settings: Assay 2 matrix assay; 16 glucose concentrations; intrinsic EC50 = concentration affording a 50% reduction in the enzyme's Km (for glucose); read-out: Glucokinase EC50
Description: Representative compounds of this invention were evaluated in biochemical assays (Assay 1 or Assay 2) to characterize their glucokinase activation properties.
The recombinant human glucokinase protein utilized in both assays was prepared and purified as described below.
BL21(DE3) cells (Invitrogen Corporation, Carlsbad, Calif.) containing pBCGK (C or N H is) vector were grown at 37° C. (in 2XYT) until the OD600 was between 0.6-1.0. Expression was induced by addition of isopropylthiogalactoside to a final concentration of 0.1-0.2 mM to the cells which were then incubated overnight at 23° C. The next day, cells were harvested via centrifugation at 5000 rpm for 15 minutes at 4° C. The cell pellet was stored at −80° C. for future purification.
Beta Cell Glucokinase His-Taq Purification Conditions: A Ni-NTA (Quigan, Germantown, Md.) column (15-50 mL) was used for separation. Two buffers were prepared, 1) a lysis/nickel equilibration and wash buffer and 2) a nickel elution buffer. The lysis/equilibration/wash buffer was prepared as such: 25 mM HEPES buffer at pH 7.5, 250 mM NaCl, 20 mM imidazole, and 14 mM β-mercaptoethanol as final concentrations. The elution buffer was prepared as such: 25 mM HEPES at pH 7.5, 250 mM NaCl, 400 mM imidazole, and 14 mM β-mercaptoethanol as final concentrations. The buffers were each filtered with a 0.22 μm filter prior to use. The cell pellet (1 L culture) was resuspended in 300 mL of the lysis/equilibration buffer. The cells were then lysed (3 times) with a Microfluidics Model 110Y microfluidizer (Microfluidics Corporation, Newton, Mass.). The slurry was centrifuged with a Beckman Coulter Model LE-80K ultracentrifuge (Beckman Coulter, Fullerton, Calif.) at 40,000 rpm for 45 minutes at 4° C. The supernatant was transferred to a chilled flask. A volume of 20 μl was saved for gel analysis. A Pharmacia AKTA (GMI, Inc., Ramsey, Minn.) purification system was used for separation. The prime lines were purged with lysis/equilibration buffer. The Ni-NTA column was equilibrated with 200 mL of the lysis/equilibration buffer at a flow rate of 5 mL/minute. The supernantant was loaded over the column at 4 mL/minute and the flow-through was collected in a flask. The unbound proteins were washed with lysis/equilibration buffer at a flow rate of 5 mL/minute until the ultraviolet reaches baseline. The protein was then eluted from the column with the imidazole elution buffer via imidazole gradient 20 mM to 400 mM over 320 mL. The column was then stripped of any additional protein with 80 mL of the elution buffer. The elution fractions were each 8 mL, for a total yield of 50 samples. Fractions were analyzed by sodium dodecyl sulfate polyacrylamide (SDS-PAGE) and the fractions containing protein of interest were pooled and concentrated to 10 mL using ultrafiltration cell with a 10,000 molecular weight cut-off (MWCO) Millipore membrane (Sigma-Aldrich, St. Louis, Mo.) under nitrogen gas (60 psi). Protein was further purified by size exclusion chromatography (SEC) using a […] (320 mL) (Amersham Pharmacia, Uppsala, Sweden). SEC was equilibrated with 450 mL sizing buffer containing 25 mM HEPES pH 7.0, 50 mM NaCl, and 5 mM dithiothreitol. Concentrated protein was then loaded over SEC and elution with 400 mL sizing buffer was performed overnight at 0.5 mL/minute. The elution fractions were 5 mL each. The fractions were analyzed by SDS-PAGE and protein containing fractions were pooled. Concentration was measured using Bradford Assay/BSA Standard. Purified protein was stored in small aliquots at −80° C.
Assay 2: Evaluating Activator Potency in a Matrix Assay at Multiple Glucose Concentrations
Utilizing an adaptation of this method, representative compounds of the current invention were evaluated at 22 different concentrations and 16 different glucose concentrations in a coupled enzyme assay system that detects glucokinase activity via depletion of β-NADH.

Question: With CNS(=O)(=O)c1ccc(Oc2cc(C(=O)Nc3ccn(C)n3)cc3nn(C)cc23)cc1 [Example 1BL, 2-methyl-4-{4-[(methylamino)sulfonyl]phenoxy}-N-(1-methyl-1H-pyrazol-3-yl)-2H-indazole-6-carboxamide] as the compound, how does the EC50 read?
Answer: 1.8 µM

Question: CC(C)n1cc2c(Oc3cnc(C(=O)N4CCC4)cn3)cc(C(=O)Nc3ccn(C)n3)cc2n1 [Example 1BT, 4-(5-(azetidine-1-carbonyl)pyrazin-2-yloxy)-2-isopropyl-N-(1-methyl-1H-pyrazol-3-yl)-2H-indazole-6-carboxamide] was tested. Which EC50 did it give?
Answer: 0.979 µM

Question: Which EC50 does the source give for Cc1cnc(NC(=O)c2cc(Oc3ccc(S(C)(=O)=O)nc3)c3cn(C)nc3c2)cn1 [Example 1AQ, 2-methyl-N-(5-methylpyrazin-2-yl)-4-{[6-(methylsulfonyl)pyridin-3-yl]oxy}-2H-indazole-6-carboxamide] here?
Answer: 5.37 µM

Question: How did the EC50 turn out when Cc1cnc(NC(=O)c2cc(Oc3ccc(S(=O)(=O)N(C)C)nc3)c3cn(C)nc3c2)cn1 [Example 1AL, 4-({6-[(dimethylamino)sulfonyl]pyridin-3-yl}oxy)-2-methyl-N-(5-methylpyrazin-2-yl)-2H-indazole-6-carboxamide] was run?
Answer: 3.17 µM

Question: Which EC50 does the source give for CCn1cc2c(Oc3cnc(C(=O)N(C)C)cn3)cc(C(=O)Nc3cnn(C)n3)cc2n1 [Example 1BZ, 4-(5-(dimethylcarbamoyl)pyrazin-2-yloxy)-2-ethyl-N-(2-methyl-2H-1,2,3-triazol-4-yl)-2H-indazole-6-carboxamide] here?
Answer: 25.1 µM

Question: How did the EC50 turn out when CN(C)S(=O)(=O)c1ccc(Oc2cc(C(=O)Nc3ccn(C)n3)cc3nn(C)cc23)cc1 [Example 1BK, 4-{4-[(dimethylamino)sulfonyl]phenoxy}-2-methyl-N-(1-methyl-1H-pyrazol-3-yl)-2H-indazole-6-carboxamide] was run?
Answer: 1.01 µM

Question: How did the EC50 turn out when CCn1cc2c(Oc3ccc(S(N)(=O)=O)cc3)cc(C(=O)Nc3ccn(C)n3)cc2n1 [Example 1CQ, 4-[4-(aminosulfonyl)phenoxy]-2-ethyl-N-(1-methyl-1H-pyrazol-3-yl)-2H-indazole-6-carboxamide] was run?
Answer: 2.88 µM

Question: With CCn1cc2c(Oc3ccc(S(C)(=O)=O)cc3)cc(C(=O)Nc3cnc(OC)cn3)cc2n1 [Example 1AX, 2-ethyl-N-(5-methoxypyrazin-2-yl)-4-[4-(methylsulfonyl)phenoxy]-2H-indazole-6-carboxamide] as the compound, how does the EC50 read?
Answer: 0.567 µM

Question: How did the EC50 turn out when CCn1cc2c(Oc3ccc(S(C)(=N)=O)cc3)cc(C(=O)Nc3ccc(C)cn3)cc2n1 (centres unmarked) [Example 1CV, 2-ethyl-N-(5-methylpyridin-2-yl)-4-[4-(S-methylsulfonimidoyl)phenoxy]-2H-indazole-6-carboxamide] was run?
Answer: 0.715 µM

Question: With CCn1cc2c(Oc3ccc(S(C)(=O)=O)cc3)cc(C(=O)Nc3ccc(C(=O)OC)cn3)cc2n1 [Example 1CK, methyl 6-[({2-ethyl-4-[4-(methylsulfonyl)phenoxy]-2H-indazol-6-yl}carbonyl)amino]nicotinate] as the compound, how does the EC50 read?
Answer: 0.396 µM

Question: How did the EC50 turn out when Cc1ccc(NC(=O)c2cc(Oc3ccc4c(c3)CCS4(=O)=O)c3cn(C)nc3c2)nc1 [Example 1AV, 4-[(1,1-dioxido-2,3-dihydro-1-benzothien-5-yl)oxy]-2-methyl-N-(5-methylpyridin-2-yl)-2H-indazole-6-carboxamide] was run?
Answer: 0.817 µM

Question: With CCn1cc2c(Oc3ccc(S(C)(=O)=O)cc3)cc(C(=O)Nc3ccc(F)cn3)cc2n1 [Example 1CI, 2-ethyl-N-(5-fluoropyridin-2-yl)-4-[4-(methylsulfonyl)phenoxy]-2H-indazole-6-carboxamide] as the compound, how does the EC50 read?
Answer: 0.714 µM

Question: How did the EC50 turn out when CCn1cc2c(Oc3cnc(C(=O)N(C)C)cn3)cc(C(=O)Nc3ccn(C)n3)cc2n1 [Example 1BU, 4-(5-(dimethylcarbamoyl)pyrazin-2-yloxy)-2-ethyl-N-(1-methyl-1H-pyrazol-3-yl)-2H-indazole-6-carboxamide] was run?
Answer: 1.05 µM

Question: Which EC50 does the source give for CCn1cc2c(Oc3ccc(S(C)(=O)=O)cc3)cc(C(=O)Nc3cnn(C)n3)cc2n1 [Example 1CA, 2-ethyl-4-[4-(methylsulfonyl)phenoxy]-N-(2-methyl-2H-1,2,3-triazol-4-yl)-2H-indazole-6-carboxamide] here?
Answer: 8.52 µM

Question: CCn1cc2c(Oc3ccc(S(N)(=O)=O)cc3)cc(C(=O)Nc3ccc(F)cn3)cc2n1 [Example 1CT, 4-[4-(aminosulfonyl)phenoxy]-2-ethyl-N-(5-fluoropyridin-2-yl)-2H-indazole-6-carboxamide] was tested. Which EC50 did it give?
Answer: 1.82 µM

Question: Which EC50 does the source give for CC(C)n1cc2c(Oc3cnc(C(=O)N4CCC4)cn3)cc(C(=O)Nc3cnn(C)n3)cc2n1 [Example 1BY, 4-(5-(azetidine-1-carbonyl)pyrazin-2-yloxy)-2-isopropyl-N-(2-methyl-2H-1,2,3-triazol-4-yl)-2H-indazole-6-carboxamide] here?
Answer: 17.5 µM

Question: CCn1cc2c(Oc3cnc(C(=O)N(C)C)c(F)c3)cc(C(=O)Nc3cnccn3)cc2n1 [Example 1BB, 4-(6-(dimethylcarbamoyl)-5-fluoropyridin-3-yloxy)-2-ethyl-N-(pyrazin-2-yl)-2H-indazole-6-carboxamide] was tested. Which EC50 did it give?
Answer: 0.195 µM

Question: With CCn1cc2c(Oc3ccc(S(C)(=N)=O)cc3)cc(C(=O)Nc3ccc(C)cn3)cc2n1 (single isomer, unassigned) [Example 1CX, 2-ethyl-N-(5-methylpyridin-2-yl)-4-[4-(S-methylsulfonimidoyl)phenoxy]-2H-indazole-6-carboxamide] as the compound, how does the EC50 read?
Answer: 1.37 µM

Question: With CCn1cc2c(Oc3cnc(C(=O)N4CCC4)cn3)cc(C(=O)Nc3cnc(C)cn3)cc2n1 [Example 1BR, 4-(5-(azetidine-1-carbonyl)pyrazin-2-yloxy)-2-ethyl-N-(5-methylpyrazin-2-yl)-2H-indazole-6-carboxamide] as the compound, how does the EC50 read?
Answer: 0.79 µM

Question: Which EC50 does the source give for CCn1cc2c(Oc3ccc(S(N)(=O)=O)cc3)cc(C(=O)Nc3cnc(C)cn3)cc2n1 [Example 1CR, 4-[4-(aminosulfonyl)phenoxy]-2-ethyl-N-(5-methylpyrazin-2-yl)-2H-indazole-6-carboxamide] here?
Answer: 0.586 µM

Same assay, conditions: Glucokinase EC50, Assay 2 matrix assay; 16 glucose concentrations; intrinsic EC50 = concentration affording a 50% reduction in the enzyme's Km (for glucose)

Question: For CCn1cc2c(Oc3cnc(C(=O)N4CCC4)c(F)c3)cc(C(=O)Nc3ccn(C)n3)cc2n1 [Example 1BA, 4-(6-(azetidine-1-carbonyl)-5-fluoropyridin-3-yloxy)-2-ethyl-N-(1-methyl-1H-pyrazol-3-yl)-2H-indazole-6-carboxamide], which EC50 is on record?
Answer: 0.191 µM

Question: How did the EC50 turn out when CCn1cc2c(Oc3cnc(C(=O)N4CCC4)c(F)c3)cc(C(=O)Nc3cnc(C)cn3)cc2n1 [Example 1AZ, 4-(6-(azetidine-1-carbonyl)-5-fluoropyridin-3-yloxy)-2-ethyl-N-(5-methylpyrazin-2-yl)-2H-indazole-6-carboxamide] was run?
Answer: 0.108 µM

Question: For Cc1cnc(NC(=O)c2cc(Oc3ccc(S(N)(=O)=O)cc3)c3cn(C)nc3c2)cn1 [Example 1AS, 4-[4-(aminosulfonyl)phenoxy]-2-methyl-N-(5-methylpyrazin-2-yl)-2H-indazole-6-carboxamide], which EC50 is on record?
Answer: 2.28 µM
